Patent US20110144303A1, “Biologically Active Peptidomimetic Macrocycles” (AILERON Therapeutics, Inc., priority 2008, published 2011)
Read-outs that look alike come from different tables or passages of the source. Starred links: 1 amine or outer side, 2 acyl side, 3 side chain; linkers in the order of their positions; H or OH if unused. Positions of bridges follow the written chain, without caps; N, C: chain ends. Non-standard residues stand in square brackets, D forms with d. Residues, ends and D or L forms follow the SMILES beside them. Nle(6-ylidene) = O=C([C@H](CCCC=[*:3])N[*:1])[*:2]; Nle = CCCC[C@H](N)C(=O)O

Key:
[1] = Pharmacokinetics of SP-1 and SP-35 in Rat following IV dose
Text: Table printed on a drawing sheet, Figure 18
Title: Pharmacokinetics of SP-1 and SP-35 in Rat following IV dose
The patent's description of the figure: FIG. 18 illustrates the pharmacokinetic properties of SP-1 and SP-35 peptidomimetic macrocycles in rats.
First reader's note: The title stands over the plot above the table and applies to both: rat, IV dose.

GST-Bcl-XL = molecular target: T1, GST-Bcl-XL (Homo sapiens, UniProt Q07817); experiment: Kd
T1 construct: GST
T1 sequence (Q07817 whole entry, looked up): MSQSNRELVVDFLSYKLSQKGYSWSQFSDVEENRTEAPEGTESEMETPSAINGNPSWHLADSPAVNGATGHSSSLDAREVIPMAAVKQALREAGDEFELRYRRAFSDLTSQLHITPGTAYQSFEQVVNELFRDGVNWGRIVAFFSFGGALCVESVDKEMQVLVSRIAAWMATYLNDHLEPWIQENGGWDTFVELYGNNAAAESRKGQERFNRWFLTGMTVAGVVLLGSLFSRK
Experimental: Table printed on a drawing sheet, Figure 7
The patent's description of the figure: FIG. 7 depicts binding properties to GST-Bcl-XL of SP-1 and SP-35 peptidomimetic macrocycles.
First copying reader's note: The table stands beside a saturation binding plot (2 µM receptor, 1x PBS + 5 mM CHAPS, 2.5% DMSO) whose legend names GST-Bcl-xL as the receptor for both peptides.
Where the first naming reader finds the target: description_of_the_figure: FIG. 7 depicts binding properties to GST-Bcl-XL of SP-1 and SP-35 peptidomimetic macrocycles.

[2] = Pepsin Stability: (E/S 1:50)
Text: Table printed on a drawing sheet, Figure 12
Title: Pepsin Stability: (E/S 1:50)
The patent's description of the figure: FIG. 12 describes the comparative pepsin stability of SP-1 and SP-35 peptidomimetic macrocycles of the invention.
First reader's note: The title is printed over the plot below the table; the rate constants and half-lives describe degradation by pepsin, and the time points used are on the plot's Time (min) axis.

GST-Bcl-2 [3] = experiment: Kd
Experimental: Table printed on a drawing sheet, Figure 8
The patent's description of the figure: FIG. 8 depicts binding properties to GST-Bcl-2 of SP-1 and SP-35 peptidomimetic macrocycles.
First copying reader's note: The Kd values belong to the plot beside the table, titled 'Saturation Binding Curves vs. 2 µM Receptor, 1x PBS + 5 mM CHAPS, 2.5% DMSO', whose legend names the receptor as GST-Bcl-2.
Where the first naming reader finds the target: description_of_the_figure: FIG. 8 depicts binding properties to GST-Bcl-2 of SP-1 and SP-35 peptidomimetic macrocycles.

Bcl-xL = molecular target: T2, Bcl-xL (Homo sapiens, UniProt Q07817); experiment: Protein-ligand binding experiment for Bcl-xL (SEC-LC-MS affinity selection); conditions: 1 μM SP-4 and 5 μM Bcl-xL in PBS, 2.5% DMSO, 60 min at room temperature
T2 construct: GST
T2 sequence (Q07817 whole entry, species assumed): as the sequence (Q07817 whole entry, looked up) above
Experimental: Protein-ligand binding experiments for Bcl-xL. Simple protein-ligand binding experiments were conducted using the following representative procedure outlined for a simple system-wide control experiment using 1 μM SP-4 and 5 μM Bcl-xL. A 1 μL DMSO aliquot of a 40 μM stock solution of SP-4 is dissolved in 19 μL of PBS (Phosphate-buffered saline: 50 mM, pH 7.5 Phosphate buffer containing 150 mM NaCl). The resulting solution is mixed by repeated pipetting and clarified by centrifugation at 10 000 g for 10 min. To a 4 μL aliquot of the resulting supernatant is added 4 μL of 10 μM BCL-xL in PBS. Each 8.0 μL experimental sample thus contains 40 pmol (1.5 μg) of protein at 5.0 μM concentration in PBS plus 1 μM SP-4 and 2.5% DMSO. Duplicate samples thus prepared for each concentration point are incubated for 60 min at room temperature, and then chilled to 4° C. prior to size-exclusion chromatography-LC-MS analysis of 5.0 μL injections. Samples containing a target protein, protein-ligand complexes, and unbound compounds are injected onto an SEC column, where the complexes are separated from non-binding component by a rapid SEC step. The SEC column eluate is monitored using UV detectors to confirm that the early-eluting protein fraction, which elutes in the void volume of the SEC column, is well resolved from unbound components that are retained on the column. […]

GST-Mcl-1 = experiment: Kd
Experimental: Table printed on a drawing sheet, Figure 4
The patent's description of the figure: FIG. 4 depicts binding properties to GST-Mcl-1 of SP-4 and SP-54 peptidomimetic macrocycles.
First copying reader's note: Kd values belong to the adjacent saturation binding plot (stapled peptides + GST-Mcl-1, 2 µM receptor, 1x PBS + 5 mM CHAPS, 2.5% DMSO).
Where the first naming reader finds the target: description_of_the_figure: FIG. 4 depicts binding properties to GST-Mcl-1 of SP-4 and SP-54 peptidomimetic macrocycles.

[4] = Pharmacokinetics of SP-4 and SP-54 in Rats following IV dose
Text: Table printed on a drawing sheet, Figure 19
Title: Pharmacokinetics of SP-4 and SP-54 in Rats following IV dose
The patent's description of the figure: FIG. 19 illustrates the pharmacokinetic properties of SP-4 and SP-54 peptidomimetic macrocycles in rats.
First reader's note: Pharmacokinetic parameters in rats after IV dosing; the table is printed under a concentration-time plot that is not copied.

GST-Bcl-2 [5] = experiment: Kd; remark: listed apart in the source
Experimental: Table printed on a drawing sheet, Figure 5
The patent's description of the figure: FIG. 5 depicts binding properties to GST-Bcl-2 of SP-4 and SP-54 peptidomimetic macrocycles.
First copying reader's note: Kd values belong to the plot beside the table, titled 'Saturation Binding Curves vs. 2 µM Receptor, 1x PBS + 5 mM CHAPS, 2.5% DMSO', with GST-Bcl-2 as the receptor.
Where the first naming reader finds the target: description_of_the_figure: FIG. 5 depicts binding properties to GST-Bcl-2 of SP-4 and SP-54 peptidomimetic macrocycles.

Which “AUC,inf” value [1] does the source give for `CCCC[C@H](NC(=O)[C@@H]1CCCC=CCCC[C@H](NC(=O)[C@H](C)NC(=O)[C@H](CC(C)C)NC(=O)[C@H](Cc2c[nH]cn2)NC(=O)[C@H](CCCNC(=N)N)NC(=O)[C@H](C)NC(=O)[C@@H](NC(=O)[C@H](CC(N)=O)NC(=O)[C@H](CCCNC(=N)N)NC(=O)[C@@H](NC(=O)[C@@H](NC(=O)[C@H](CC(=O)O)NC(C)=O)[C@@H](C)CC)[C@@H](C)CC)[C@@H](C)CC)C(=O)N[C@@H](C(C)C)C(=O)NCC(=O)N[C@@H](CC(=O)O)C(=O)N1)C(=O)N[C@@H](CC(=O)O)C(=O)N[C@@H](CCCNC(=N)N)C(=O)N[C@@H](CO)C(=O)N[C@H](C(N)=O)[C@@H](C)CC` [SP-35, Ac-DIIRNIARHLA#VGD#NleDRSI-NH2] (Ac-DIIRNIARHLA[Nle(6-ylidene)]VGD[Nle(6-ylidene)][Nle]DRSI-NH2; staple 12-16) here?
The value was 15400 ng·h/mL.

And the “Cl” value [1]?
Its value is 3.25 mL/min/kg.

What about the “Vss” value [1] of the same molecule?
The value was 0.132 L/kg.

What about the “Vz” value [1] of the same molecule?
Its value is 2.025 L/kg.

What about the Cmax ([1]; rat, in vivo, iv) of the same molecule?
The Cmax was 32200 ng/mL.

And the MRT ([1]; rat, in vivo, iv)?
Its MRT is 0.68 h.

And the half-life ([1]; rat, in vivo, iv)?
Its half-life is 2.1 h.

And the Kd (GST-Bcl-XL)?
The Kd was greater than 10000 nM.

What about the “K1 min^-1” value [2] of the same molecule?
The value was 0.15 min⁻¹.

What about the “K2 min^-1” value [2] of the same molecule?
The value was 0.0430 min⁻¹.

What about the “half-life^1” value [2] of the same molecule?
The value was 4.6 min.

What about the “half-life^2” value [2] of the same molecule?
The value was 0.267 h.

And the Kd (GST-Bcl-2 [3])?
The Kd was greater than 10000 nM.

What does the source list for `CC[C@H](C)[C@H](NC(C)=O)C(=O)N[C@@H](Cc1c[nH]c2ccccc12)C(=O)N[C@H](C(=O)N[C@@H](C)C(=O)N[C@@H](CCC(N)=O)C(=O)N[C@@H](CCC(=O)O)C(=O)N[C@@H](CC(C)C)C(=O)N[C@@H](CCCNC(=N)N)C(=O)N[C@@]1(C)CCCC=CCCC[C@@](C)(C(=O)N[C@@H](Cc2ccccc2)C(=O)N[C@@H](CC(N)=O)C(=O)N[C@@H](C)C(=O)N[C@@H](Cc2ccc(O)cc2)C(=O)N[C@@H](Cc2ccc(O)cc2)C(=O)N[C@@H](C)C(=O)N[C@@H](CCCNC(=N)N)C(=O)N[C@@H](CCCNC(=N)N)C(N)=O)NC(=O)[C@H](CC(=O)O)NC(=O)CNC(=O)[C@H]([C@@H](C)CC)NC1=O)[C@@H](C)CC` [SP-4, Ac-IWIAQELR$IGD$FNAYYARR-NH2]?
detection of the protein-ligand complex by ESI-MS after size-exclusion chromatography (Bcl-xL): detection of the protein-ligand complex; Kd (GST-Mcl-1): 7 nM; AUC,inf [4]: 38000 ng·h/mL; Cl [4]: 1.37 mL/min/kg; Vss [4]: 0.263 L/kg; Vz [4]: 0.728 L/kg; Cmax ([4]; rat, in vivo, iv): 18100 ng/mL; MRT ([4]; rat, in vivo, iv): 3.1 h; Kd (GST-Bcl-2 [5]): 26 nM
